In paper PMC3254090 (ACS chemical neuroscience, 2011):
Read-outs that look alike come from different tables or passages of the source.

Assays:
[1] = tested on: histamine subtype 3 (H3) receptor; details: cited from earlier work
[2] = cited from earlier work
HCT116 cells = test: HCT116 colon carcinoma cell viability assay; assay type: cell-based; details: for effect on HCT116 cell viability: after 48 hours
histamine H3 [3] = target: T1, histamine H3 (Homo sapiens, UniProt Q9Y5N1); test: radioligand binding assay, H3
[4] = target: T2, Dopamine Transporter, DAT (Homo sapiens, UniProt Q01959); test: radioligand binding assay, DAT
[5] = target: T3, norepinephrine transporter, NET (Homo sapiens, UniProt P23975); test: radioligand binding assay, NET
histamine H3 [6] = target: T1, histamine H3; test: functional assay, H3; assay type: biochemical
[7] = target: T2, Dopamine Transporter, DAT; test: functional assay, DAT; assay type: biochemical
[8] = target: T3, norepinephrine transporter, NET; test: functional assay, NET; assay type: biochemical
[9] = tested on: 68 GPCRs, ion channels and transporters; test: external panel of radioligand binding assays
SERT = SERT (Homo sapiens, UniProt P31645); test: SERT activity in receptor profiling; assay type: binding
[10] = standard cytotoxicity assay
[11] = cited from earlier work; remark: listed apart in the source
SW620 cells [12] = test: BrdU proliferation assay, SW620; assay type: cell-based; details: 10 μM, 48 hours
H520 cells [13] = test: BrdU proliferation assay, H520; assay type: cell-based; details: 10 μM, 48 hours
SW620 cells [14] = test: cell viability, SW620; assay type: cell-based
H520 cells [15] = test: cell viability, H520; assay type: cell-based

T1 sequence (Q9Y5N1 whole entry): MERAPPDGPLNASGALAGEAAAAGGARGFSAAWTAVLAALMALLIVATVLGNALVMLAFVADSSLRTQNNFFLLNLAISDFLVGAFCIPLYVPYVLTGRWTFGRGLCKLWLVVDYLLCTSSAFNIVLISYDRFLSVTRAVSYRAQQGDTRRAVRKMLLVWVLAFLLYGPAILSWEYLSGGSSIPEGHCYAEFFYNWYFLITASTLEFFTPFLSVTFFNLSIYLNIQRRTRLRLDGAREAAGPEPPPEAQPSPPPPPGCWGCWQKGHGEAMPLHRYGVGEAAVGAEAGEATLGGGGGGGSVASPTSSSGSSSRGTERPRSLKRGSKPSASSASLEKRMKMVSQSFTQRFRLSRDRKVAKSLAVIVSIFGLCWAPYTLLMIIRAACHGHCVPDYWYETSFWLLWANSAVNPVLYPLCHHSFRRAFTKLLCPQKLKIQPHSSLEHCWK
T3 sequence (P23975 whole entry): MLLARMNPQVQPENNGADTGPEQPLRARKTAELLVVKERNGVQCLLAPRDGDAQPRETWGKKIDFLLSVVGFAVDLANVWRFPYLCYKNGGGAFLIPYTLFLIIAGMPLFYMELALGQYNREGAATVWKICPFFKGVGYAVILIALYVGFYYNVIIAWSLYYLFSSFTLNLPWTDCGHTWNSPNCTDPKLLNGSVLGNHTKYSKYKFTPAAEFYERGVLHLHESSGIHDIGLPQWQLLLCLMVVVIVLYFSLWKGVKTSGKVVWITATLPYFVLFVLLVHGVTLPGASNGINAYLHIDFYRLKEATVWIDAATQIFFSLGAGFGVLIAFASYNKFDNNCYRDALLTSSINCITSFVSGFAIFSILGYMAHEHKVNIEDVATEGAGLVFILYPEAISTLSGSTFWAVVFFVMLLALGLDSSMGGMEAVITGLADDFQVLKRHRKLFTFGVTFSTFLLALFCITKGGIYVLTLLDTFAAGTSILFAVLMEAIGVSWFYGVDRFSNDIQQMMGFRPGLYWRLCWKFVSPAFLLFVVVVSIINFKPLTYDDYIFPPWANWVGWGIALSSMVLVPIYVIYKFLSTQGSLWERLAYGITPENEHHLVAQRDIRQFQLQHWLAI
T2 sequence (Q01959 whole entry): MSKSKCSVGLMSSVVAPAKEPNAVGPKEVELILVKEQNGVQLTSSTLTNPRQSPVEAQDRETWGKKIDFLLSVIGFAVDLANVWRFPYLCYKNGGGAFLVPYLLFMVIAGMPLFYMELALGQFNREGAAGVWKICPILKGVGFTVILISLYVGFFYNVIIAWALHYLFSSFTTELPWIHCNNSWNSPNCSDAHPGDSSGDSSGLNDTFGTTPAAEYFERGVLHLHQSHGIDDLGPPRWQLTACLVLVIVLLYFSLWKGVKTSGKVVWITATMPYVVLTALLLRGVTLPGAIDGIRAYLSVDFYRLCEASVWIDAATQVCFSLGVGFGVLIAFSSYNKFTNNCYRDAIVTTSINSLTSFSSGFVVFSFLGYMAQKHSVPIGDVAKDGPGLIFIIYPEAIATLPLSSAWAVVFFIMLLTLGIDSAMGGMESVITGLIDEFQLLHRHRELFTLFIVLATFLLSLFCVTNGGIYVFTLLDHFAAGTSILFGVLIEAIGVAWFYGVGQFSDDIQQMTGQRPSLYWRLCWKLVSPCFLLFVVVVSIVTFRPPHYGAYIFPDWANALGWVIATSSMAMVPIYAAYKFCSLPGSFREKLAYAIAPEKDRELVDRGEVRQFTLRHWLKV
SERT, sequence (P31645 whole entry, species assumed): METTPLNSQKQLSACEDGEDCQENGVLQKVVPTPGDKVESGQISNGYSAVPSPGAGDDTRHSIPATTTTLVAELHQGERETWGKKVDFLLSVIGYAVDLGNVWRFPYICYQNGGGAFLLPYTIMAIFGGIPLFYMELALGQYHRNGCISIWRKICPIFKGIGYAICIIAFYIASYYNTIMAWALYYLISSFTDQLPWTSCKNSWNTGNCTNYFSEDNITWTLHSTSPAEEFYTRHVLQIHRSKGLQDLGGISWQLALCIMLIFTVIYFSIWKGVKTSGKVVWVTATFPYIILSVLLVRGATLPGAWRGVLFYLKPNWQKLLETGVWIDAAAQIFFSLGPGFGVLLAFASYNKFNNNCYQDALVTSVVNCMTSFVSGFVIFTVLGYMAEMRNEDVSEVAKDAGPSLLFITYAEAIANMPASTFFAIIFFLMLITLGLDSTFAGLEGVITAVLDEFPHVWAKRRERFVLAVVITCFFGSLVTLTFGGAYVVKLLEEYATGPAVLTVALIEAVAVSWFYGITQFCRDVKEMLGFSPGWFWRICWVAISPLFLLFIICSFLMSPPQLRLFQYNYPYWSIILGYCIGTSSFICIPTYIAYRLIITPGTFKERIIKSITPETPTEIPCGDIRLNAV

CN(C)CCCOc1c(Br)cc(CCN(C)C)cc1Br [compound 1, aplysamine]
affinity for and inhibition of H3 receptor [1]: displayed both affinity for, and inhibition of

COc1ccc(C/C(=N\O)C(=O)NCCc2c[nH]cn2)cc1Br [compound 2, verogamine]
affinity for and inhibition of H3 receptor [1]: displayed both affinity for, and inhibition of

C[C@H]1[C@H]2CC[C@H]3[C@@H]4CC=C5C[C@@H](N(C)C)CC[C@]5(C)[C@H]4CC[C@]23CN1C [compound 3, conessine]
affinity for and inhibition of H3 receptor [1]: displayed both affinity for, and inhibition of

CN(C)CCCOc1ccc(CCNC(=O)c2cc(Br)c[nH]2)cc1Br [compound 4, dispyrin]
affinity for and inhibition of H3 receptor [1]: displayed both affinity for, and inhibition of

N=C(N)NCCCC1NCCc2c1[nH]c1ccccc21 (stereo not drawn) [compound 5, trypargine]
toxicity [2]: highly toxic

N=C(N)NCCC[C@H]1NCCc2c1[nH]c1cc(Br)ccc21 [compound 7, (+)-7-Bromotrypargine]
effect on HCT116 cell viability (HCT116 cells): no affect on HCT116 cell viability | % Inhibition (@10 μM) (histamine H3 [3]; 10 μM, radioligand binding): 74% | Ki (histamine H3 [3]; binding): 1.8 µM | % Inhibition (@10 μM) ([4]; 10 μM, radioligand binding): 81% | Ki ([4]; binding): 3 µM | % Inhibition (@10 μM) ([5]; 10 μM, radioligand binding): 82% | Ki ([5]; binding): 1.9 µM | IC50 (histamine H3 [6]): 3.6 µM | IC50 [7]: 3.8 µM | IC50 [8]: 1.9 µM | pharmacological profile in panel of 68 targets [9]: significant percent inhibition at only three targets | SERT activity (SERT): devoid of SERT activity | SERT activity (SERT; listed as (+)-7-bromotrypargine): without inhibiting SERT | cytotoxicity: non-toxic up to [10]: > 20 µM | antimalarial activity [11]: found to possess antimalarial activity

NCCC[C@H]1NCCc2c1[nH]c1cc(Br)ccc21 [compound 21, (R)-3-(7-bromo-2,3,4,9-tetrahydro-1H-pyrido[3,4-b]indol-1-yl)propan-1-amine]
IC50 (HCT116 cells; Homo sapiens, HCT-116, 48 h): 3 µM | effect on HCT116 cell viability (HCT116 cells): completely killing the cells | cytotoxicity in multiple cell lines (HCT116 cells; multiple non-transformed and colon cancer cell lines): extremely cytotoxic | inhibition of proliferation (BrdU) (SW620 cells [12]): dramatic affects inhibiting proliferation | inhibition of proliferation (BrdU) (H520 cells [13]): dramatic affects inhibiting proliferation | activity on cell viability (SW620 cells [14]): significant activity on cell viability | activity on cell viability (H520 cells [15]): significant activity on cell viability
